Laboratory results: US8735439B2, “Chlorin e6-folic acid conjugate, preparation method thereof, and a pharmaceutical composition for the treatment of cancer comprising the same” (Diatech Korea Co., Ltd., priority 2009, dated 2014)
Values joined by “and” are separate entries in the source; they are usually repeats but may differ in a detail not shown here. Equal entries are not always repeated.

Assays:
[1] = Quenching of excited triplet states by molecular oxygen; assay type: physicochemical
Text: The data presented in Table 2 supports the analysis of specific features of quenching of excited triplet states of chlorin e6-conjugate by molecular oxygen in solutions and biological systems.

[2] = Generation of singlet oxygen (luminescence at 1270 nm); assay type: physicochemical
Experimental: Photoresponse of this process (φΔ) was measured by a relative method through integral intensity of singlet oxygen luminescence at a wavelength of 1270 nm. Excitation was conducted at a wavelength of 531 nm (pulse energy 4 microJ, frequency 1 kHz). Tests were made in air saturated buffer solutions at room temperature. […] The φΔ in D2O was considered as 0.7.
To analyze kinetic curves of singlet oxygen luminescence, the following function was used:
wherein A is a coefficient depending on initial concentrations of interacted reagents, and k1 and k2 are constants of luminescence signal increase and extinction, respectively.
In the case when the deactivation rate constant Kτ of the photosensitizer triplet state exceeds the deactivation rate constant KΔ of the molecular oxygen […] state, the constant of increase k1 corresponds to Kτ, and constant of extinction k2 corresponds to KΔ. In the case of Kτ<KΔ, inversion of the kinetics of singlet oxygen luminescence occurs. In this case, k2=Kτ and k1=KΔ. […] Thus, based on kinetic data, the life times of singlet oxygen and triplet state can be calculated.

[3] = system: Hela cells; assay: Competition assay with exogenous folic acid, uptake in Hela cells; assay type: cell-based; conditions: 4 μM/l folic acid, 24 hours
Text: Then, the sample was centrifuged, the supernatant was taken, and the pellet was rewashed with cooled Hank's solution. The obtained pellet was again transferred into Hank's solution.

[4] = system: HeLa cell culture; assay: Phototoxicity (photodynamic activity), 3.5 h incubation, 3.3 joule/cm^2; assay type: cell-based; parameters: number of HELA cells relative to the control: unit not given here; conditions: photoexposure 3.3 joule/cm^2; for number of HELA cells relative to the control: 3.5 hours incubation
Experimental: To examine the photodynamic effects of a photosensitizer on a HeLa cell culture, the photosensitizer solution was added to the nutrient media at a final concentration of 0.1, 0.5, 1.0, 5.0 or 10 mcg/ml on day 3 after transplanting the cell culture into flasks. The flasks were wrapped with a light protecting cover, and incubated at 37° C. for 3.5 hours. Then, the cells were washed with Hank's solution, and exposed on ice by a laser medical device “LD 680-2000” (wavelength: 670-690 nm) at a dose of 3.3 joule/cm^2. After 20-24 hours, the available cell monolayer was dispersed using a 0.02%-Versene solution, and the number of tumor cells was calculated in Goriaev's chamber. For each point, 3 flasks were used.

[5] = system: Hela cells; assay: Phototoxicity, 24 h incubation, 1.5-15 joule/cm^2; assay type: cell-based; conditions: 670-690 nm
Experimental: In other experiment, the cells were incubated with photosensitizers at 37° C. for 24 hours, and irradiated by exposed on ice by a laser medical device “LD 680-2000” (wavelength of 670-690 nm) in a dose of 1.5-15 joule/cm^2.

[6] = system: sarcoma M-1; assay: Necrotic area in sarcoma M-1 after PDT; assay type: in vivo, rats; conditions: for Necrotic area / Ratio of necrotic area to total area: PDT 100 J/cm^2 at 4 hours, mean of 25 slides
Experimental: 2 hours later the animals were killed by chloroform, the tumor was excised and fixed for one hour in 10%-HOM formalin. After fixation, transverse sections of the tumor nodule in its highest diameter were made, and pictures were taken by a camera connected to a computer.
For quantitative assessment of necroses formed after PDT, computer analysis of color tints of histo-topographic tumor slides was performed using a special program.
The program included an algorithm of blue color identification (Evans blue), which stained viable areas of the tumor. Tumor areas killed from direct cytotoxic effect or due to structural-functional disorders of microcirculation were not stained in blue. The ratio of all non-stained dots to the total amount of dots in the fence of the tumor slide was considered to be the destruction efficiency.
(§1) For this purpose, a laser medical instrument “ ? 680-2000” (BIOSPEC, Moscow) was used to perform the exposure at a wavelength of 670 nm in a dose of 100 J/cm^2. The power density was 0.51 W/cm^2, the output power was 0.4 W, and the spot light diameter was 1 cm. Time of exposure was […]. Monitoring over radiating power was conducted by a universal power meter included in the laser device “ ? 4680-2000”.

[7] = system: sarcoma M-1; assay: Growth of sarcoma M-1 after PDT (tumor volume); assay type: in vivo, rats
Experimental: as §1

[8] = air saturated buffer solution, room temperature

For “[γ-(6-aminohexyl)folic acid]-chlorin e6 [chlorin e6 conjugate]”, the “bi-molecular rate constant for O2 quenching of the triplet excited state” value (“bi-molecular rate constant” for short) ([1]; Pyridine) was 4.5×10^9 M^−1 c^−1, the “bi-molecular rate constant” value ([1]; buffer solution) was 1.5×10^9 M^−1 c^−1 and the “bi-molecular rate constant” value ([1]; lipid bilayer) was 9×10^9 M^−1 c^−1. For the same substance, the “bi-molecular rate constant” value ([1]; micellar complex (Triton X-100), upper limit) was 1.5×10^9 M^−1 c^−1, the “bi-molecular rate constant” value ([1]; pigment-protein complex, upper limit) was 2.5×10^9 M^−1 c^−1 and the “φΔ (efficiency of ^1O2 generation)” value ([2]; H2O, pH 8.1) was 0.70. The “φΔ (efficiency of ^1O2 generation)” value ([2]; HSA, H2O, pH 8.1) was 0.63-, the “φΔ (efficiency of ^1O2 generation)” value ([2]; Pyridine) was 0.68 and the “φΔ (efficiency of ^1O2 generation)” value ([2]; Triton X-100) was 0.80. The “τt (life time of triplet state) from kinetic curves of singlet oxygen luminescence” value [2, 8] was 2.0±0.2 microsec, the “τΔ (life time of singlet oxygen) from kinetic curves of singlet oxygen luminescence” value [2, 8] was 3.6±0.2 microsec and the “photoresponse of photosensitized formation of singlet oxygen” value ([2]; pH 6.0) was 0.52. The “photoresponse of photosensitized formation of singlet oxygen” value ([2]; pH 8.1) was 0.7, the “effect of free folic acid on uptake in Hela cells” value [3] was “significantly reduced the uptake” and the “number of HELA cells relative to the control” value ([4]; 0.1 mcg/ml) was 65.1. For the same substance, the “number of HELA cells relative to the control” value ([4]; 0.5 mcg/ml) was 42.3, the “number of HELA cells relative to the control” value ([4]; 1.0 mcg/ml) was 12.6 and the “inhibition of proliferation of Hela cells” value ([4]; 5-10 mcg/ml) was “fully inhibited the proliferation”. For the same substance, the “number of HELA cells relative to the control” value ([4]; 5.0 mcg/ml) was 0.1, the “phototoxicity in survival test” value [5] was “improved the photosensitivity” and the Necrotic area ([6]; 2.5 mg/kg) was 0.637 cm^2. For the same substance, the “Ratio of necrotic area to total area” value ([6]; 2.5 mg/kg) was 25.56±1.65% and 25.56%, the Necrotic area ([6]; 5.0 mg/kg) was 0.741 cm^2 and the “Ratio of necrotic area to total area” value ([6]; 5.0 mg/kg) was 34.16±2.16% and 34.16%. For the same substance, the “anti-tumor effect compared among dose and exposure groups” value ([6]; 10.0 mg/kg, 1 hr exposure) was “most prominent anti-tumor effect”, the Necrotic area ([6]; 10.0 mg/kg) was 1.205 cm^2 and the “Ratio of necrotic area to total area” value ([6]; 10.0 mg/kg) was 66.16±3.83% and 66.16%. For the same substance, the “Ratio of necrotic area to total area” value ([6]; 10.0 mg/kg, listed as chlorin e6-folic acid conjugate) was 66.16%, the “Growth inhibition rate of sarcoma M-1 in volume to the control” value (“Growth inhibition rate” for short) ([7]; 2.5 mg/100 g + 100 J/cm^2 for 1 h, day 7) was 47.5% and the “Growth inhibition rate” value ([7]; 2.5 mg/100 g + 100 J/cm^2 for 1 h, day 10) was 79.4%. The “Growth inhibition rate” value ([7]; 2.5 mg/100 g + 100 J/cm^2 for 1 h, day 12) was 87.6%, the “Growth inhibition rate” value ([7]; 2.5 mg/100 g + 100 J/cm^2 for 1 h, day 14) was 89.8% and the “Growth inhibition rate” value ([7]; 2.5 mg/100 g + 100 J/cm^2 for 1 h, day 17) was 94.8%. The “Growth inhibition rate” value ([7]; 2.5 mg/100 g + 100 J/cm^2 for 1 h, day 19) was 94.1%, the “Growth inhibition rate” value ([7]; 2.5 mg/100 g + 100 J/cm^2 for 1 h, day 21) was 94.2% and the “Growth inhibition rate” value ([7]; 2.5 mg/100 g + 100 J/cm^2 for 1 h, day 24) was 93.6%. The “volume of sarcoma M-1” value ([7]; 2.5 mg/kg + 100 J/cm^2 for 1 h, day 7 after tumor transplant) was 0.25 ± 0.03 cm^3, the “volume of sarcoma M-1” value ([7]; 2.5 mg/kg + 100 J/cm^2 for 1 h, day 10) was 0.28 ± 0.03 cm^3 and the “volume of sarcoma M-1” value ([7]; 2.5 mg/kg + 100 J/cm^2 for 1 h, day 12) was 0.34 ± 0.06 cm^3. The “volume of sarcoma M-1” value ([7]; 2.5 mg/kg + 100 J/cm^2 for 1 h, day 14) was 0.41 ± 0.09 cm^3, the “volume of sarcoma M-1” value ([7]; 2.5 mg/kg + 100 J/cm^2 for 1 h, day 17) was 0.46 ± 0.11 cm^3 and the “volume of sarcoma M-1” value ([7]; 2.5 mg/kg + 100 J/cm^2 for 1 h, day 19) was 0.69 ± 0.27 cm^3. For the same substance, the “volume of sarcoma M-1” value ([7]; 2.5 mg/kg + 100 J/cm^2 for 1 h, day 21) was 0.96 ± 0.38 cm^3, the “volume of sarcoma M-1” value ([7]; 2.5 mg/kg + 100 J/cm^2 for 1 h, day 24) was 1.19 ± 0.48 cm^3 and the “Growth inhibition rate” value ([7]; 5 mg/100 g + 100 J/cm^2 for 1 h, day 7) was 36.9%. For the same substance, the “Growth inhibition rate” value ([7]; 5 mg/100 g + 100 J/cm^2 for 1 h, day 10) was 77.9%, the “Growth inhibition rate” value ([7]; 5 mg/100 g + 100 J/cm^2 for 1 h, day 12) was 89.1% and the “Growth inhibition rate” value ([7]; 5 mg/100 g + 100 J/cm^2 for 1 h, day 14) was 92.6%. The “Growth inhibition rate” value ([7]; 5 mg/100 g + 100 J/cm^2 for 1 h, day 17) was 95.8%, the “Growth inhibition rate” value ([7]; 5 mg/100 g + 100 J/cm^2 for 1 h, day 19) was 95.9% and the “Growth inhibition rate” value ([7]; 5 mg/100 g + 100 J/cm^2 for 1 h, day 21) was 96.9%. The “Growth inhibition rate” value ([7]; 5 mg/100 g + 100 J/cm^2 for 1 h, day 24) was 97.1%, the “volume of sarcoma M-1” value ([7]; 5 mg/kg + 100 J/cm^2 for 1 h, day 7 after tumor transplant) was 0.29 ± 0.02 cm^3 and the “volume of sarcoma M-1” value ([7]; 5 mg/kg + 100 J/cm^2 for 1 h, day 10) was 0.300 ± .03 cm^3. The “volume of sarcoma M-1” value ([7]; 5 mg/kg + 100 J/cm^2 for 1 h, day 12) was 0.30 ± 0.03 cm^3, the “volume of sarcoma M-1” value ([7]; 5 mg/kg + 100 J/cm^2 for 1 h, day 14) was 0.30 ± 0.03 cm^3 and the “volume of sarcoma M-1” value ([7]; 5 mg/kg + 100 J/cm^2 for 1 h, day 17) was 0.37 ± 0.05 cm^3. The “volume of sarcoma M-1” value ([7]; 5 mg/kg + 100 J/cm^2 for 1 h, day 19) was 0.47 ± 0.11 cm^3, the “volume of sarcoma M-1” value ([7]; 5 mg/kg + 100 J/cm^2 for 1 h, day 21) was 0.50 ± 0.14 cm^3 and the “volume of sarcoma M-1” value ([7]; 5 mg/kg + 100 J/cm^2 for 1 h, day 24) was 0.54 ± 0.17 cm^3. For the same substance, the “Growth inhibition rate” value ([7]; 10 mg/100 g + 100 J/cm^2 for 1 h, day 7) was 56.5%, the “Growth inhibition rate” value ([7]; 10 mg/100 g + 100 J/cm^2 for 1 h, day 10) was 86.0% and the “Growth inhibition rate” value ([7]; 10 mg/100 g + 100 J/cm^2 for 1 h, day 12) was 93.8%. For the same substance, the “Growth inhibition rate” value ([7]; 10 mg/100 g + 100 J/cm^2 for 1 h, day 14) was 95.8%, the “Growth inhibition rate” value ([7]; 10 mg/100 g + 100 J/cm^2 for 1 h, day 17) was 98.1% and the “Growth inhibition rate” value ([7]; 10 mg/100 g + 100 J/cm^2 for 1 h, day 19) was 95.2%. The “Growth inhibition rate” value ([7]; 10 mg/100 g + 100 J/cm^2 for 1 h, day 21) was 98.8%, the “Growth inhibition rate” value ([7]; 10 mg/100 g + 100 J/cm^2 for 1 h, day 24) was 98.9% and the “volume of sarcoma M-1” value ([7]; 10 mg/kg + 100 J/cm^2 for 1 h, day 7 after tumor transplant) was 0.20 ± 0.03 cm^3. The “volume of sarcoma M-1” value ([7]; 10 mg/kg + 100 J/cm^2 for 1 h, day 10) was 0.19 ± 0.04 cm^3, the “volume of sarcoma M-1” value ([7]; 10 mg/kg + 100 J/cm^2 for 1 h, day 12) was 0.17 ± 0.03 cm^3 and the “volume of sarcoma M-1” value ([7]; 10 mg/kg + 100 J/cm^2 for 1 h, day 14) was 0.17 ± 0.03 cm^3. The “volume of sarcoma M-1” value ([7]; 10 mg/kg + 100 J/cm^2 for 1 h, day 17) was 0.17 ± 0.03 cm^3, the “volume of sarcoma M-1” value ([7]; 10 mg/kg + 100 J/cm^2 for 1 h, day 19) was 0.17 ± 0.03 cm^3 and the “volume of sarcoma M-1” value ([7]; 10 mg/kg + 100 J/cm^2 for 1 h, day 21) was 0.20 ± 0.03 cm^3. The “volume of sarcoma M-1” value ([7]; 10 mg/kg + 100 J/cm^2 for 1 h, day 24) was 0.20 ± 0.03 cm^3 and the “inhibition rate of tumor volumetric growth compared to the control” value ([7]; rats with sarcoma M-1, monitored for 24 days after PDT) was 86.34-99.1%.
